According to patent US20230109839A1, “THERAPEUTIC AGENT FOR TAUOPATHIES” (SUMITOMO PHARMA CO., LTD., priority 2020, published 2023):

The compounds below were run against T1, human Nav1.1 (Homo sapiens, UniProt P35498) (assay: Amplification of Nav1.1-derived voltage-gated sodium current (Nav1.1 current), automated patch clamp (Test 1)). Conditions: Concentration for evaluation 1 μM; HEK293 cell line stably expressing human Nav1.1.
T1 construct: host or cells: HEK293
Type: cell-based
Outline: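 Compound-induced change in ramp-evoked sodium current peak and AUC was expressed as 100×post/pre ratio minus 100. Recordings used automated patch clamp in voltage-clamp mode on a stable human Nav1.1 HEK293 line, including only cells above 500 pA. Compounds were delivered in extracellular fluid containing 1% DMSO.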

Row | Structure (SMILES) | Nav1.1 current amplification rate (%)
1 | CC1CC=C(c2ccc(=O)n(CC(=O)N3CCc4c3ccc(F)c4-c3ccnnc3)n2)CC1 (stereo not drawn) [Example 295] | 95%
2 | CC1CC=C(c2ccc(=O)n(CC(=O)Nc3cncc(-c4cnn(C)c4)c3)n2)CC1 (stereo not drawn) [Example 378] | 37%
3 | CN(c1cnc2cnn(CC(=O)Nc3cncc(Br)c3)c2n1)C1CCC1 [Example 692] | 33%
4 | CN(c1cnc2cnn(CC(=O)Nc3cnc4cccnc4c3)c2n1)C1CC1 [Example 713] | 112%
5 | CN(CC1CC(F)(F)C1)c1cnc2cnn(CC(=O)Nc3ccn4ncnc4c3)c2n1 [Example 624] | 61%
6 | CC1CC=C(c2ccc(=O)n(CC(=O)Nc3ccc4ncnn4c3)n2)CC1 (stereo not drawn) [Example 339] | 127%
7 | CN(c1cnc2cnn(CC(=O)N3CCc4c(-c5ccncc5)cccc43)c2n1)C1CCC1 [Example 689] | 286%
8 | CC(C1CC1)N(C)c1cnc2cnn(CC(=O)Nc3ccn4ncnc4c3)c2n1 (stereo not drawn) [Example 633] | 15%

Same assay, conditions: Concentration for evaluation 3 μM; HEK293 cell line stably expressing human Nav1.1

Row | Structure (SMILES) | Nav1.1 current amplification rate (%)
9 | CC1(C)CC=C(c2ccc(=O)n(CC(=O)N3CCc4c(C5CN(C6COC6)C5)cccc43)n2)CC1 [Example 438] | 404%
10 | CC1CC=C(c2ccc(=O)n(CC(=O)Nc3ccc4oc(CN(C)C)nc4c3)n2)CC1 (stereo not drawn) [Example 324] | 50%
11 | CN(c1cnc2cnn(CC(=O)N3CCN(c4cccnc4)CC3)c2n1)C1CCCC1 [Example 673] | 20%
12 | CC1CC=C(c2ccc(=O)n(CC(=O)Nc3ccn4c(C5CC5)cnc4c3)n2)CC1 (stereo not drawn) [Example 335] | 187%

Same assay, conditions: Concentration for evaluation 10 μM; HEK293 cell line stably expressing human Nav1.1

Row | Structure (SMILES) | Nav1.1 current amplification rate (%)
13 | COc1cc(=O)n(CC(=O)Nc2ccc3ocnc3c2)nc1C1=CCC(C)(C)CC1 [Example 451] | 365%
14 | O=C(Cn1nc(-c2ccc(C(F)(F)F)nc2)ccc1=O)Nc1ccc2ocnc2c1 [Example 453] | 15%
15 | CC1CC=C(c2ccc(=O)n(CC(=O)N3CC=C(c4nccc5occc45)CC3)n2)CC1 (stereo not drawn) [Example 404] | 42%
16 | Cc1cc(=O)n(CC(=O)Nc2ccn3ccnc3c2)nc1C1=CCC(C)(C)CC1 [Example 461] | 337%
17 | CC1CC=C(c2ccc(=O)n(CC(=O)Nc3cccc4nccn34)n2)CC1 (stereo not drawn) [Example 255] | 32%

Same assay, conditions: Concentration for evaluation 50 μM; HEK293 cell line stably expressing human Nav1.1

Row | Structure (SMILES) | Nav1.1 current amplification rate (%)
18 | Cc1ccc(F)c(Nc2ncc3cnn(CC(=O)Nc4ccn5ncnc5c4)c3n2)c1 [Example 776] | 17%

Same assay, conditions: HEK293, Concentration for evaluation 1 μM; HEK293 cell line stably expressing human Nav1.1; read-out: Nav1.1 current amplification rate (%)

Row | Structure (SMILES) | activation at 1 µM
19 | CN(c1cnc2cnn(CC(=O)Nc3ccc4ncncc4c3)c2n1)C1CC(C)(C)C1 [Example 758] | 61%

Same assay, conditions: HEK293, concentration for evaluation 1 μM; HEK293 stably expressing human Nav1.1; read-out: Nav1.1 current amplification rate (%)

Row | Structure (SMILES) | activation at 1 µM
20 | CN(c1ccc2cnn(CC(=O)Nc3ccc4ncncc4c3)c2n1)C1CCCC1 [Example 892] | 39%
21 | CN(c1ccc2cnn(CC(=O)Nc3cnc4cccnc4c3)c2n1)C1CC1 [Example 888] | 101%
22 | CC1CC=C(c2ncc3cnn(CC(=O)NC4=CC5N=COC5C=C4)c3n2)CC1 (stereo not drawn) [Example 833] | 283%

Same assay, conditions: HEK293, concentration for evaluation 10 μM; HEK293 stably expressing human Nav1.1; read-out: Nav1.1 current amplification rate (%)

Row | Structure (SMILES) | activation at 10 µM
23 | CC1CC=C(c2ccc3cnn(CC(=O)Nc4ccn5ccnc5c4)c3c2)CC1 (stereo not drawn) [Example 894] | 151%

Same assay, conditions: concentration for evaluation 1 μM; HEK293 stably expressing human Nav1.1

Row | Structure (SMILES) | Nav1.1 current amplification rate (%)
24 | O=C(Cn1ncc2ccc(N3CCC4(CCC4)CC3)nc21)Nc1ccn2ncnc2c1 [Example 854] | 45%
25 | CC(C)c1ccc(NC(=O)Cn2ncc3cnc(N4CCC5(CC5)C(F)(F)C4)nc32)cn1 [Example 829] | 54%
26 | CN(CC1CCC1)c1ncc2cnn(CC(=O)Nc3ccn4ncnc4c3)c2n1 [Example 798] | 193%

Same assay, conditions: concentration for evaluation 50 μM; HEK293 stably expressing human Nav1.1

Row | Structure (SMILES) | Nav1.1 current amplification rate (%)
27 | CC1(C)CN(c2ccc3cnn(CC(=O)Nc4ccn5ncnc5c4)c3n2)C1 [Example 859] | 39%
